The values that follow come from ChEMBL document CHEMBL4138181, “Synthesis, molecular docking, and QSAR study of sulfonamide-based indoles as aromatase inhibitors” (Eur J Med Chem, 2018).

In series [1] the target is T1, Aromatase (Homo sapiens, UniProt P11511).
T1 sequence (P11511 whole entry): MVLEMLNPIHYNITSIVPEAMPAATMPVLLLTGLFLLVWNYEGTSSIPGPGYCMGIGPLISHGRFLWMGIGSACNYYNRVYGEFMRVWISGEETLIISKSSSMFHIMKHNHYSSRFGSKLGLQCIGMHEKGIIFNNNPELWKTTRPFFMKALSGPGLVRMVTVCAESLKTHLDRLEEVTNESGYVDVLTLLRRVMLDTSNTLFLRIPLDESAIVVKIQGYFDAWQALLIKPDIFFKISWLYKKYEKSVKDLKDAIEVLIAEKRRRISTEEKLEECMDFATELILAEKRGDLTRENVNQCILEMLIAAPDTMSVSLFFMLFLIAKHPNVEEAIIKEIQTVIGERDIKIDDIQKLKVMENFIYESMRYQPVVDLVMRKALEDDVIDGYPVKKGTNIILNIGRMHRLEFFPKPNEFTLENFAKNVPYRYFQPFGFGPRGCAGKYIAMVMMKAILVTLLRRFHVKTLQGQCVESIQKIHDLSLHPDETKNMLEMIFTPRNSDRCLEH
As to the kind of experiment: Inhibition of aromatase (unknown origin) using O-benzyl fluorescein benzyl ester as substrate in presence of NADPH-generating system by fluorescence assay.

The subject of the next series is Vero. Description: Cytotoxicity against GFP-expressing African green monkey Vero cells after 4 days by fluorescence assay. Conditions: Chlorocebus sabaeus, 96 h. The format is cell-based.
In series [2] the test system is aromatase. Description: Selectivity index, ratio of IC50 for GFP-expressing African green monkey Vero cells to IC50 for aromatase (unknown origin). In kind it is toxicity. Conditions: read-out: Ratio IC50.

Take `COc1ccc(S(=O)(=O)NCCc2c(C(c3cc(OC)c(O)c(OC)c3)c3[nH]c4ccccc4c3CCNS(=O)(=O)c3ccc(OC)cc3)[nH]c3ccccc23)cc1`: the half-maximal inhibitory concentration (IC50) – broadly, the concentration needed to halve the response being measured – at Aromatase [1] was 2.5 µM; with Vero, > 50 mg/L. Further, the selectivity ratio in the series on aromatase [2] is > 24.2.
